Assay results as given in a melting point compilation (Tetko et al.; mined from patent text by program, amines drawn as free bases though some values may be those of a salt).

Row | Compound | melting point
1 | CN1CCN(CCc2ccc(Nc3ncc4c(n3)-c3ccccc3C(c3ccc(Cl)c(Cl)c3)C4)cc2)CC1 (stereo unspecified) | 119 to 121 °C
2 | CC(C)c1cn2cccc(CO)c2n1 | 97 to 99 °C
3 | COC(=O)c1c(O)cc(OCC(=O)c2ccc3c(c2)C(C)(C)CCC3(C)C)cc1O | 162 to 163 °C
4 | O=C(NS(=O)(=O)NCC1CCCO1)OCc1ccccc1 (stereo unspecified) | 96 to 97 °C
5 | CCN1CCCC1CNC(=O)c1nc(NC)sc1-c1ccncc1 (stereo unspecified) | 76 to 78 °C
6 | O=CNC[C@H]1CN(c2ccc(N3CCOCC3)c(F)c2)C(=O)O1 | 44 to 47 °C
7 | Cc1cc(O)nc(N(C)C#N)n1 | 290 °C
8 | CC(C)(Oc1ccc(C#N)cc1)C(O)Cc1cnccn1 (stereo unspecified) | 94 to 95 °C
9 | FC1CCC2C3Cc4ccccc4C2(CCN3)C1 (stereo unspecified) | 93 to 97 °C
10 | OCc1ccc2[nH]cc(CCCCN3CC=C(c4ccccc4)CC3)c2c1 | 162 to 164 °C
11 | CCOP(=O)(/C=C/c1cn(-c2ccccc2)nc1OCc1ccc(OCc2nc(-c3cccc(C#N)c3)oc2C)c(OC)c1)OCC | 147 to 148 °C
12 | O=C(Nc1cccnc1)N1CCN(c2nccc(-c3cccc(F)c3)n2)CC1 | 210 to 211 °C
13 | O=C(O)COn1cccn1 | 99 °C
14 | c1ccc(C2SC3(CCNCC3)c3ccccc32)cc1 (stereo unspecified) | 142 to 144 °C
15 | O=C(O)Cc1nc(C(=O)c2ccccc2)no1 | 143 to 144 °C
16 | CCOCN(C(=O)CCl)c1c(OC)cccc1OC | 95 to 97 °C
17 | Cn1nnnc1S(=O)(=O)CCCCS(=O)(=O)c1nnnn1C | 192 to 194 °C
18 | COC(=O)c1c(O)cc(OCC(O)c2ccc3c(c2)C(C)(C)CCC3(C)C)cc1O (stereo unspecified) | 127 to 128 °C
19 | c1ccc(CN2CCCC3(CC2)CC(c2ccccc2)=NO3)cc1 (stereo unspecified) | 42 to 57 °C
20 | CC=CCOc1cc(OC)cc(C(=O)OC)c1 | 140 to 141 °C
21 | O=C(O)Cc1csc(NC(=O)OCC(Cl)(Cl)Cl)n1 | 164 °C
22 | CCOCc1nc2c(N)nc3ccccc3c2n1CC(C)(C)N | 161 to 162 °C
23 | Cc1cccc(OC(F)F)c1NC(=O)CCl | 85 to 86 °C
24 | O=[N+]([O-])c1c(NCCCO)cccc1NCCCO | 90 °C

Row | Compound | melting point
25 | C=CC(=O)NC(Cc1ccccc1)C(=O)O (stereo unspecified) | 136 to 138 °C
26 | C=C(C)Cn1c(N)cc(=O)[nH]c1=O | 267 to 269 °C
27 | CN1CCN(CC(=O)N2c3ccccc3N(C)S(=O)(=O)c3ccccc32)CC1 | 143 to 144 °C
28 | Cc1nc2n(C)c(C)cn2c(=O)c1CCBr | 125 °C
29 | C#Cc1ccc(C#C)cc1 | 91 to 92 °C
30 | CCOC(=O)C(=CNC1CC1)C(=O)c1cc(F)c(F)c(C)c1F | 73 to 75 °C
31 | O=C(O)CCCC(=O)c1ccc(O)c(O)c1 | 210 to 215 °C
32 | COc1cc(C)c2ccc(N)nc2n1 | 233 to 236 °C
33 | CCCCCCCCCCCCSc1ccc2nn(-c3cc(C(C)(C)C)cc(C(C)(C)C)c3O)nc2c1 | 62 to 64 °C
34 | CC(C)c1cc(S(C)(=O)=O)c(C(C)C)cc1C#N | 134 to 137 °C
35 | COC(=O)CN1C(=O)CC1SCc1ccc(OC)cc1 (stereo unspecified) | 45 to 46 °C
36 | Cn1cnc(C(=O)N2CCC(NC(=O)Nc3ccc(C(F)(F)F)cc3)CC2)c1 | 222 to 226 °C
37 | CN(C)CC1(C2(O)CCCCC2)Cc2cc3c(cc21)N(C)CC3 (stereo unspecified) | 121 to 124 °C
38 | Clc1cc(Cl)c2c(c1)COCO2 | 111 to 112 °C
39 | CC(O)(C1CCC(Oc2ncnc3ccccc23)CC1)C(F)(F)F (stereo unspecified) | 159 to 160 °C
40 | CCOCc1nc2c(N)nc3ccccc3c2n1CC1(OCCS(C)(=O)=O)CCC1 | 221 to 223 °C
41 | COc1cc(-n2cnc(C)c2C)cc2oc(=O)c(C)c(C)c12 | 196 to 198 °C
42 | Cc1ccccc1-n1c(C=Cc2ccccc2F)nc2nccnc2c1=O | > 250 °C
43 | OCc1cc(C2CN(CCCCCCOCCCCc3ccccc3)CO2)ccc1O (racemic) | 72 to 75 °C
44 | COc1cc2c(CCN)c(C)[nH]c2c(Cl)c1Cl | 184 to 186 °C
45 | Cc1ccc([C@H]2CCCN2[S@@](=O)C(C)(C)C)cc1 | 62 to 64 °C
46 | CC1Cc2cc3c(cc2C(c2ccc(N)cc2)=NN1)OCO3 (stereo unspecified) | 118 to 120 °C
47 | CCOC(=O)Cn1cc(CC(=O)O)c2ccccc21 | 138 °C
48 | C#CCN(CC#C)c1ccc(Cl)c(Cl)c1 | 48 to 50 °C

Further lines, results first:

Row | melting point | Compound
49 | 170 °C | Nc1cc(CO)cc(S(N)(=O)=O)c1Oc1ccccc1
50 | 296 to 298 °C | Nc1nc(-c2cccc(C(F)(F)F)c2)nc2nc(-c3ccco3)nn12
51 | 252 to 262 °C | Cn1c(=O)nc(N)c2ccccc21
52 | 157 °C | O=C1/C(=C(/c2ccccc2)N2CCCC2)Sc2ccccc21
53 | 220 °C | CC(=O)N1C(C(=O)NC2CCC(O)CC2)C(c2cccc(Cl)c2F)C2(C(=O)Nc3cc(Cl)ccc32)C1CC(C)(C)C (stereo unspecified)
54 | 217 to 218 °C | Cc1ccc(Cl)cc1NC(=S)Nc1ccn(C)n1
55 | 125 to 126 °C | COc1cccc(OC)c1CN1CCC(=O)C(C(c2ccc(F)cc2)c2ccc(F)cc2)C1 (stereo unspecified)
56 | 193 to 196 °C | NC(=S)NN=Cc1ncc([N+](=O)[O-])n1Cc1ccccc1
57 | 146 to 152 °C | Cc1c(OCC(=O)O)ccc(-c2noc3ccccc23)c1C
58 | 138 °C | Nc1ccccc1SCC(C(=O)O)c1ccc(C(F)(F)F)cc1 (stereo unspecified)
59 | 72 °C | CC(C)(C)c1ccc2c(c1)C(C(=O)O)=Cc1ccccc1O2
60 | 218 °C | CN1CCC(N(C2CC2)S(=O)(=O)c2ccc(Nc3nccc(Nc4ccc(F)cc4)n3)cc2)CC1
61 | 160 °C | CCCc1ccccc1Sc1c(C)n(CC(=O)O)c2ccc(NS(C)(=O)=O)cc12
62 | 145 to 148 °C | CCOC(=O)N1CCC(c2ccc3oc(-c4ccc(S(C)(=O)=O)cc4F)nc3c2)CC1
63 | > 300 °C | Cc1[nH]c(=O)c2c(ccc3nc(Nc4c(Cl)cccc4Cl)n(C)c32)c1CCO
64 | 325 to 329 °C | CCc1nc(C)c(CC(=O)O)c(=O)n1Cc1ccc(-c2ccccc2-c2nnn[nH]2)cc1
65 | 146 to 147 °C | CS(=O)(=O)c1nccc(-c2ccc(Oc3ccc(F)cc3)cc2)n1
66 | 145 to 147 °C | COc1ccc2c(n1)C1(CO2)C(=O)N(Cc2ccc(C(F)(F)F)o2)c2ccccc21 (stereo unspecified)
67 | 69 to 77 °C | COc1cc(N2CCCN(C)CC2)ccc1Nc1ncc2ccc(-c3ccccc3OC)n2n1
68 | 170 to 172 °C | O=C(O)c1ccc(OCCCCCCc2cccc(O)c2O)cc1

Row | melting point | Compound
69 | 253 to 255 °C | Cc1ccc(C)c(-c2c3ccccc3nc3ccc(NC(=O)c4ccccc4)cc23)c1
70 | 124 to 126 °C | Cc1cc2cc(O)ccc2[nH]1
71 | 205 to 207 °C | C[C@]1(COc2ccc(N3CCC(CCOCc4ccc(OC(F)(F)F)cc4)CC3)cc2)Cn2cc([N+](=O)[O-])nc2O1
72 | 150 to 151 °C | C=Cn1cc(C(=O)OCC)c(=O)c2cc(F)c(Cl)nc21
73 | 122 to 125 °C | Cc1c(-c2ccc3c(c2)OCO3)n(Cc2ccc(OCCN3CCCCC3)cc2)c2ccc(O)cc12
74 | 312 to 314 °C | N#Cc1cc(-c2c(-c3ccccc3)nn3ccccc23)c[nH]c1=O
75 | 248 to 250 °C | COc1ccc(Cl)cc1-c1c(N)c(=O)[nH]c2ccccc12
76 | 189 to 191 °C | O=c1c2cc(F)c(N3CCCC3)nc2n(-c2ccc(F)cc2F)c(=O)n1O
77 | 235 °C | CS(=O)(=O)Nc1cc(N)c(F)cc1C#N
78 | 201 to 202 °C | Cc1cc2c(cc1OCc1ccccc1)OC[C@@H](N1CCC(O)(c3ccc(F)cc3)CC1)[C@H]2O (relative stereo)
79 | 175 to 178 °C | Cc1csc2ncc(C(O)CCc3ccc(Br)cc3)n12 (stereo unspecified)
80 | > 250 °C | O=C(O)Cc1cnc2c(NC(=O)c3c(Cl)cccc3Cl)cccc2c1
81 | 228 to 231 °C | COc1ccc(/C=C/c2nc3ncccc3c(=O)o2)cc1OC
82 | 169 to 172 °C | CCOc1ccc(F)c(CCN=C(N)Nc2ccc(Br)cn2)c1Cl
83 | 67 to 68 °C | O=[N+]([O-])c1ccc(Cl)c(CN2CCCCC2)c1Cl
84 | 230 to 233 °C | COc1cccc2c1C(c1ccccc1Cl)NC(=O)C2 (stereo unspecified)
85 | 265 to 268 °C | COc1nc(C(F)(F)F)cc(=O)n1-c1ccc(Cl)c(C(=O)O)c1
86 | 138 to 141 °C | CCCCOc1ccc(NC(=O)c2cnc(C(=O)OC)c(OC)c2)cc1
87 | 196 °C | COc1cc(Nc2nccc(-c3ccc([N+](=O)[O-])cc3)n2)cc(OC)c1OC
88 | > 250 °C | O=c1[nH]c2cc(Cl)ccc2c(=O)n1S(=O)(=O)c1ccc([N+](=O)[O-])cc1

Row | melting point | Compound
89 | 104 to 105 °C | O=C(c1ccc(Br)cc1)c1cccc([N+](=O)[O-])c1
90 | 151 to 152 °C | Cc1ccc(N2CCN(Cc3ccc4c(c3)NCCN4)CC2)cc1Cl
91 | 165 to 166 °C | O=C(O)CCCNC(=O)c1ccccc1NC(=O)c1cccc(Cl)c1
92 | 84 to 85 °C | CCCCCCCCCCCCCCOc1ccc(C(=O)Cc2ccc([N+](=O)[O-])cc2)cc1
93 | 174 to 175 °C | COc1nc2ccccc2cc1NC(=O)N1CCN(c2cccc(C)c2C)CC1
94 | 148 to 150 °C | O=C(c1ccccc1F)c1cc2c(c(Cl)c1Cl)OC(CO)C2 (stereo unspecified)
95 | 139 to 142 °C | O=C(Nc1ccccc1)Oc1ccc(N=C=S)cc1
96 | 214 to 217 °C | CCCc1ccc2c(C(=O)O)ccc(OC)c2n1
97 | 180 °C | Cn1cc(C(O)c2cccc(Cl)c2)cc1C(=O)O (stereo unspecified)
98 | 75 to 77 °C | Cc1ccc(S(=O)(=O)OC2CC3(C)C=CC(C)(C2)O3)cc1 (stereo unspecified)
99 | 226 to 227 °C | Cn1ncc(/C=C/C(=O)Nc2ccc(Cc3nc(C(=O)O)cs3)cc2)c1-c1ccc(F)cc1
100 | 52 °C | CCC(C)(C)C1=C(O)C(=O)c2ccccc2C1=O
101 | 214 °C | Cc1cccc(-c2nc(N)ncc2-c2ccc(=O)n(C)n2)c1
102 | 236 to 242 °C | CNc1nc(-n2cc(C(=O)O)c(=O)c3cc(F)c(F)c(Cl)c32)c(F)cc1F
103 | 100 to 102 °C | Clc1ccc2onc(Cn3ccnc3)c2c1
104 | 184 to 190 °C | COc1ccccc1-c1n[nH]c2c(Cl)cc(C)nc12
105 | 183 to 185 °C | N#Cc1ccc(NC(=O)Nc2cccc(C#N)c2)cc1
106 | 139 to 140 °C | CCCC(OC)c1ccc(Cl)c2nc3n(c12)CCCN3c1ccc(Cl)cc1Cl (stereo unspecified)
